Data reported in ChEMBL document CHEMBL1201862, “PubChem BioAssay data set” (2004).
Active and inactive are the calls of the source. No stated cut-off is given here; in the data, actives have a measured IC50 and inactives only a lower limit.

Target: Envelope glycoprotein gp160 (Human immunodeficiency virus 1, UniProt Q6QLK5)
Assay: inhibitors of HIV fusion peptide binding, primary screen, biochemical, uHTS, fluorescence dequenching (AID 1986)

Chain of Envelope glycoprotein gp160 (Q6QLK5 whole entry, the tested form may be a part): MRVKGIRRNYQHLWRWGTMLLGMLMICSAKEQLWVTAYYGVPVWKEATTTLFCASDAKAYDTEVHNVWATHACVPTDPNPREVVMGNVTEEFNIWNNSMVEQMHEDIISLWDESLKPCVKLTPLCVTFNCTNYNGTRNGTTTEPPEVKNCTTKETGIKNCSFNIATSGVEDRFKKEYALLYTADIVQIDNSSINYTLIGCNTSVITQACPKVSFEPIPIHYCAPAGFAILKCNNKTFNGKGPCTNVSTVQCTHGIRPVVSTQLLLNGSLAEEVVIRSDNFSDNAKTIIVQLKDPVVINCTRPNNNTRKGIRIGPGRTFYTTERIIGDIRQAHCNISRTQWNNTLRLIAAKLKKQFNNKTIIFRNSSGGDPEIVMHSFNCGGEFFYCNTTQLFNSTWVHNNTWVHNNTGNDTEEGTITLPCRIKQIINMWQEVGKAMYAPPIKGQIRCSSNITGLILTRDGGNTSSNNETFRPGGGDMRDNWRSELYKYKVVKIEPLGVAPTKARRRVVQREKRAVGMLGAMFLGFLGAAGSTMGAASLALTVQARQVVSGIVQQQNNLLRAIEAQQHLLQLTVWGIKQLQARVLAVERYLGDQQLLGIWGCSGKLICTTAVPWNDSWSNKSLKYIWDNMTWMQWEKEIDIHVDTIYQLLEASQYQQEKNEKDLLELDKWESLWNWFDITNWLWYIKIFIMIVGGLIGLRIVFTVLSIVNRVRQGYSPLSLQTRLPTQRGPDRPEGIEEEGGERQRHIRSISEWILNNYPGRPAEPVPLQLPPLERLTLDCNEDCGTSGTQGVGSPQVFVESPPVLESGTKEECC

**Q.** For COc1cc(/C=C(\C#N)c2nc3ccccc3s2)cc([N+](=O)[O-])c1O, which IC50 is on record?
**A.** 8.88 µM (active)
